The record followed here is patent US20120277265A1, “NOVEL POLYQUINOLINE DERIVATIVES AND THE THERAPEUTIC USE THEREOF” (CENTRE NATIONAL DE LA RECHERCHE SCIENTIFIQUE (C.N.R.S.), priority 2005, published 2012).

Data set [1] in a line: UV-visible spectrophotometric titration with ZnCl2 (metal/ligand stoichiometry). It is filed as binding. The conditions noted are these: 15 μM ligand; Tris-HCl buffer pH 7.4/organic solvent, per ligand as in Table 3 column Solvent. The method, then: An organic solvent (CH3OH, dioxane or DMSO) was added in order to achieve good solubility of the ligands and metal complexes in the concentrations used in these experiments. Exact proportions of the organic solvent/buffer mixture are specified for each UV-visible characterisation of the different ligands or metal complexes.
Aliquot portions of concentrated CuCl2 or ZnCl2 solutions (M) are added to a 15 μM ligand solution so as to induce only negligible variations in volume. After each addition, changes in absorption spectra are observed immediately and are consistent between two additions, which corresponds to a rapid complexing process. The exact absorption values relating to each ligand and the copper(II) or zinc(II) complexes thereof are detailed hereinafter in the Experimental part (in the Synthesis part for ligands and hereinafter for the metal complexes).
The stoichiometry of the different ligands (L) for Cu(II) or ZN(II) have therefore been determined spectrophotometrically by metal ion titration. In this example, for an M/L ratio increasing from 0 to 1, π→π* with transition, centred at 251 nm for the free ligand, is shifted to a lower energy with a concomitant appearance of an absorption band in the visible region of the spectrum (λmax to 383 nm), which is probably the result of an MLCT transition. For greater M/L ratios, no additional change in the UV-visible absorption spectra is observed.

A short description of data set [2]: Competition reaction between ligand (Ls), ZnCl2 and competing chelator (Lc), UV-visible; affinity constants. It is filed as binding. To be noted: for % MLs: Zn(II), EDTA as Lc, 1/1/1 at 15 μM. The method, then: An organic solvent (CH3OH, dioxane or DMSO) was added in order to achieve good solubility of all the ligands and metal complexes in the concentrations used in these experiments.
As the concentration [MLs]=x % of C is measured on the UV-visible spectra, the concentrations [Ls]=(1−x) % of C, [MLc]=(1−x) % of C and [Lc]=x % of C can be deduced therefrom and:
In these conditions, [MLs]=[MLc]; [MLs]+[Lc]=Y, y≧50 and:
When log Ks 6, these equations are not used since the percentages of metal ion which is free in the solution or chelated by the solvent or the buffer are not negligible.

A short description of data set [3]: Hydrogen peroxide produced by Aβ1-42 in the presence of CuCl2, ascorbate, air and ligand (Amplex Red H2O2/HRP). It is filed as biochemical. The conditions noted are these: CuCl2 0.4 μM, ascorbate 10 μM, air.
Data set [4] deals with T1, copper complexes of Aβ1-42 peptide (Homo sapiens, UniProt P05067).
T1 construct: The β-amyloid peptide Aβ1-42 (Aβ1-42) was synthesised, purified (to a purity greater than 95%); made in house; host or cells: chemical peptide synthesis (no expression host)
The description is as above. It is filed as biochemical. The conditions noted are these: for amount of H2O2, 0.2 μM Aβ1-42 Cu/Aβ = 2 / amount of H2O2, 0.5 μM Aβ1-42 Cu/Aβ = 0.75: CuCl2 0.4 μM, ascorbate 10 μM, air.

Data set [5] can be described thus: Determination of log D7.4 (1-octanol / Tris-HCl buffer). It is filed as physicochemical. To be noted: 1-octanol / 20 mM Tris-HCl buffer containing 150 mM NaCl (pH = 7.4) (1/1, v/v). The essentials: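 Ligand partitioned between 1-octanol and 20 mM Tris-HCl pH 7.4 with 150 mM NaCl: vortexed 3 min at ambient temperature, centrifuged, each phase quantified by UV-visible spectrophotometry. log D7.4 is log of octanol/buffer concentration ratio, measured three times.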

Data set [6] deals with Salmonella tiphimurium TA98. Nature of the data set: AMES test, TA98. From the text:
AMES test: The method is adapted from D. M. Maron and B. N. Ames, Mutat.
The test involves evaluating the potential of the tested molecules to induce mutation which is reverse to the histidine locus of these lines. These two lines were provided by Dr. Bruce N. Ames (University of California, Berkeley, USA). They are resistant to Ampicillin and sensitive to Tetracycline. They are not mutant toward rfa, UvγV and UvγA. The line TA98 (his D3052) contains a mutation of reading phase (GC) whereas the line TA100 (his G46) contains a substitution of base pair (GC).
The compounds to be tested were dissolved in 100% of DMSO (the solvent) and diluted logarithmically (by a factor of 10) so as to obtain 4 test concentrations of 30,000; 3,000; 300 and 30 μg/ml. Each series of 0.1 ml of stock solution to be tested, 0.1 ml of test line and of culture medium with or without 0.5 ml of enzymatic homogenate (S9) of rat liver microsome were mixed with 2 ml of molten agarose (containing 0.5 mM of histidine and 0.5 mM of biotin). This mixture was placed on the surface of a plate of minimal agarose glucose medium (30 ml for each Petri dish) so as to obtain final concentrations of compound to be tested of 3,000; 300; 30 and 3 μγ/plate. The plates were then incubated at 37° C. for 48 hours. […] The revertant colonies of the test lines were counted using a colony counter (Sigma). […] A compound inducing a number of colonies <50% of cells obtained for the solvent alone was deemed to be toxic for the bacteria tested. All the experiments were carried out in triplicate.

Setting [7] is: Ls/ZnCl2/Lc 1/1/1 at 15 μM, solvent per ligand as in Table 3.
The mark [8] stands for this setting: value per plate, Addition of S9: no.
Setting [9] is: value per plate, Addition of S9: yes.

Where two headings read alike, the source gives them in different places. Bounds are passed on as bounds.

T1 sequence (P05067 672-713 limits assumed, one chain of several): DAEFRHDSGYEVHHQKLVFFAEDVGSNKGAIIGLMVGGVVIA

For the compound `CC(C)(c1ccc2cccc(O)c2n1)c1ccc2cccc(O)c2n1` [Compound 3, 2,2′-(2,2-propanediyl)-bis(8-hydroxyquinoline)], the “Complex observed by titration with Zn^II (observed L/Zn(II) stoichiometry)” value (from here on “Complex observed by titration with Zn^II”) in data set [1] is given as “LZn^II(1/1)”. Also, the “percentage of ZnLs species at equilibrium, competing ligand DTPA” value in data set [2] (setting [7]) is given as 20%. Moreover, in data set [2] (setting [7]), the “percentage of ZnLs species at equilibrium, competing ligand EDTA” value (shortened to “percentage … competing ligand EDTA”) is listed as 30%. In data set [2] (setting [7]), the “percentage of ZnLs species at equilibrium, competing ligand EGTA” value worked out at 100%. In addition, in data set [2] (setting [7]), the “percentage of ZnLs species at equilibrium, competing ligand NTA” value is recorded as 100%. In addition, the “percentage of ZnLs species at equilibrium, competing ligand Trien” value in data set [2] (setting [7]) is reported as 100%. Besides, the “% MLs” value in data set [2] (Buffer/CH3OH (1/1)) was 30%; in data set [2] (Buffer/DMSO (2/8)), 35%; in data set [2] (Buffer/dioxane (2/8)), 33%; in data set [2] (CH3OH) it was 40%. In addition, the “number of Lc equivalents making it possible to form 50% of ZnLs, Lc = EDTA” value in data set [2] (mixture of Ls (15 μM, 1 equivalent) and ZnCl2 (1/1, mol/mol)) is recorded as 0.7 eq. In addition, the “amount of H2O2, without Aβ1-42” value in data set [3] (ligand 0.5 eq/Cu(II)) was 2.12 nmol; in data set [3] (ligand 1 eq/Cu(II) (0.4 μM)), 0.84 nmol. Besides, the “H2O2 production as a function of the Cu/Aβ1-42 ratio” value in data set [4] (FIG. 11, 1 equivalent of ligand per Cu(II) (0.4 μM), Aβ1-42 0.2 to 0.53 μM) is “virtually inhibit H2O2 production”. Moreover, the “amount of H2O2, 0.2 μM Aβ1-42 Cu/Aβ = 2” value in data set [4] (ligand 0.5 eq/Cu(II)) is 0.94 nmol; in data set [4] (ligand 1 eq/Cu(II) (0.4 μM)), 0.71 ± 0.02 nmol; in data set [4] (ligand 1.5 eq/Cu(II)) it was 0.49 nmol. In addition, the “amount of H2O2, 0.5 μM Aβ1-42 Cu/Aβ = 0.75” value in data set [4] (ligand 1 eq/Cu(II) (0.4 μM)) stood at 0.55 nmol. In data set [5], this compound gave a logD at 3 min of 4.4 ± 0.1. For the same compound, the “TA98 Cytotoxicity” value in data set [6] (setting [8]) and in data set [6] (setting [9]) was above 3000 µg in each case. Besides, the “TA98 Mutagenic effect” value in data set [6] (setting [8]) and in data set [6] (setting [9]) was above 3000 µg throughout.

Turning to `CC(C)(c1ccc2c(Cl)ccc(O)c2n1)c1ccc2c(Cl)ccc(O)c2n1` [Compound 4, 2,2′-(2,2-Propanediyl)-bis(5-chloro-8-hydroxyquinoline)], the “Complex observed by titration with Zn^II” value in data set [1] is “LZn^II(1/1)”. Besides, the “percentage … competing ligand EDTA” value in data set [2] (setting [7]) is 20%. The “amount of H2O2, without Aβ1-42” value in data set [3] (ligand 1 eq/Cu(II) (0.4 μM)) was determined as 0.12 nmol. For the same compound, in data set [4] (ligand 1 eq/Cu(II) (0.4 μM)), the “amount of H2O2, 0.2 μM Aβ1-42 Cu/Aβ = 2” value came out at 0.37 ± 0.09 nmol and the “amount of H2O2, 0.5 μM Aβ1-42 Cu/Aβ = 0.75” value was 0.35 nmol. This compound also had a logD at 3 min in data set [5] of 4.9 ± 0.1.

For the compound `Oc1cccc2ccc(C(F)(F)c3ccc4cccc(O)c4n3)nc12` [Compound 5, 2,2′-(Difluoromethanediyl)-bis(8-hydroxyquinoline)], the “Complex observed by titration with Zn^II” value in data set [1] is on record as “LZn^II(1/1)”. For the same compound, the “percentage … competing ligand EDTA” value in data set [2] (setting [7]) came out at 55%. In data set [3] (ligand 1 eq/Cu(II) (0.4 μM)), the “amount of H2O2, without Aβ1-42” value amounted to 0.39 nmol. In addition, the “amount of H2O2, 0.2 μM Aβ1-42 Cu/Aβ = 2” value in data set [4] (ligand 1 eq/Cu(II) (0.4 μM)) was determined as 0.55 ± 0.08 nmol. The compound also came in with a logD at 3 min in data set [5] of 3.8 ± 0.1. For the same compound, in data set [6] (setting [8]), the “TA98 Cytotoxicity” value is above 3000 µg and the “TA98 Mutagenic effect” value is above 3000 µg. In data set [6] (setting [9]), the “TA98 Cytotoxicity” value is above 3000 µg and the “TA98 Mutagenic effect” value was above 3000 µg.

As to `O=C(c1ccc2cccc(O)c2n1)c1ccc2cccc(O)c2n1` [Compound 6, Bis(8-hydroxy-2-quinoline)methanone], in data set [1], the “Complex observed by titration with Zn^II” value is “LZn^II(1/1)”. Besides, the “percentage … competing ligand EDTA” value in data set [2] (setting [7]) is 75%. The “amount of H2O2, without Aβ1-42” value in data set [3] (ligand 1 eq/Cu(II) (0.4 μM)) was 0.82 nmol. Besides, the “amount of H2O2, 0.2 μM Aβ1-42 Cu/Aβ = 2” value in data set [4] (ligand 1 eq/Cu(II) (0.4 μM)) was determined as 0.86 ± 0.11 nmol. In data set [5], the “log D7.4” value is listed as 3.9 ± 0.1.

With `c1cnc2c(Nc3cccc4cccnc34)cccc2c1` [Compound 12, Bis(8-quinoline)amine], the “Complex observed by titration with Zn^II” value in data set [1] is listed as “LZn^II(1/1)”. In data set [2] (affinity constant at pH = 7.4, solvent per ligand as in Table 3 column Solvent, Equation 8 (a) or 7 (b)), the “Log KZn^II” value is listed as “≈6”. Also, the “amount of H2O2, without Aβ1-42” value in data set [3] (ligand 1 eq/Cu(II) (0.4 μM)) was determined as 0.40 nmol. In addition, the “amount of H2O2, 0.2 μM Aβ1-42 Cu/Aβ = 2” value in data set [4] (ligand 1 eq/Cu(II) (0.4 μM)) came to 0.47 ± 0.09 nmol. In addition, in data set [5], the “log D7.4” value is reported as 3.5 ± 0.1. The “TA98 Mutagenic effect” value in data set [6] is above 3000 µg. The “TA98 Cytotoxicity” value in data set [6] (setting [8]) and in data set [6] (setting [9]) was above 3000 µg each time.

A word on the logD: it is the decadic logarithm of the distribution of all forms, ionised or not, between an organic phase and buffer at a given pH. Read a low logD as lower lipophilicity.
